Assays:
[1] = Ability of a test compound to regulate transcription of a Type I collagen gene using the expression level of a reporter gene (COL-Luc luciferase) as an index; type: cell-based; details: final concentration 1 μM; normal human fetal skin fibroblast transfected with COL-Luc; TGF-β, 40 hours; read-out: inhibition percentage (inhibitory effect on the ability of TGF-β to promote transcription of a Type I collagen gene)
Method: 1×10^8 cells of a normal human fetal skin fibroblast (Clontech, catalogue No. CC-2509) were cultured at 37° C. overnight under 5% CO2 atmosphere. After the cultured cells were washed with a sodium phosphate buffer (hereinafter, referred to as PBS) twice, 3 ml of PBS was added thereto and the cells were scraped away the wall of a vessel using a cell scraper (Nalgen, catalogue No. 179693). The scraped cells were collected by centrifugation (1,500 rpm, 4° C., 15 min), and these were suspended in 20 ml of PBS and centrifuged again. To the resulting precipitates were added 11 ml of Solution 2 and 4.8 μl of pronase of DNA Extraction Kit (Stratagene, catalogue No. 200600). After shaken at 60° C. for 1 hour, the resulting mixture was allowed to stand in ice for 10 minutes. Then, 4 ml of Solution 3 of the kit was added to the mixture. After mixed, the mixture was allowed to stand in ice for 5 minutes and then centrifuged (3,000 rpm, 4° C., 15 min) to recover a supernatant. To the recovered supernatant was added 2 μl of RNase per 1 ml of the supernatant and the mixture was allowed to stand at 37° C. for 15 minutes. To the mixture was added 2-fold volume of ethanol. After mixed, a white thread-like substance (genomic DNA) appeared and the substance was recovered. The recovered genomic DNA washed with 70% ethanol and then air-dried. The air-dried genomic DNA was dissolved in 500 μl of 10 mM Tris-HCl, 1 mM EDTA (pH 8.0) (hereinafter, referred to as TE).
The resulting genomic DNA solution (the amount equivalent to 1 μg of genomic DNA), each 1 μl (10 pmol/μl) of an oligonucleotide consisting of the nucleotide sequence represented by SEQ ID No:1 and an oligonucleotide consisting of the nucleotide sequence represented by SEQ ID No:2, 29 μL of distilled water, 5 μl of the buffer attached to TaKaRa LA Taq (TAKARA SHUZO, catalogue No. RR002A), 5 μL of a Mg^2+ solution, 5 μL of a dNTP mixture and 0.5 μl of TaKaRa LA Taq (TAKARA SHUZO, catalogue No. RR002A) were mixed. After the resulting mixed solution was incubated at 94° C. for 5 minutes, the mixed solution was subjected to 30 cycles, in which one cycle consists of incubation at 94° C. for 1 minute, at 60° C. for 1 minute and then at 72° C. for 1 minute. The mixed solution was electrophoresed on a 2% agarose gel to recover about 0.5 kb of a DNA. The recovered DNA was treated with phenol/chloroform and then precipitated with ethanol to recover the DNA. The resulting DNA was dissolved in ultrapure water. To this solution were added 2.5 μl of NheI and 2.5 μl of HindIII, and then incubated at 37° C. for 3 hours. Then, the solution was electrophoresed on a 2% agarose gel to recover about 3.5 kb of a DNA. The recovered DNA was precipitated with ethanol to recover again the DNA (hereinafter, referred to as the collagen promoter DNA).
On the other hand, the vector pGL3 (Promega, catalogue No. E1751) having the nucleotide sequence encoding firefly luciferase was digested with NheI and HindIII, and then subjected to agarose gel electrophoresis as described above to recover about 5 kb of a DNA. The recovered DNA was precipitated with ethanol to recover the DNA again. To the recovered DNA were added 44 μl of distilled water, 5 μl of Buffer attached to Alkaline Phosphatase (TAKARA SHUZO, catalogue No. 2120A) and 1 μl of Alkaline Phosphatase (TAKARA SHUZO, catalogue No. 2120A). The mixed solution was incubated at 65° C. for 30 minutes. Then, the mixed solution was treated with phenol/chloroform twice, and precipitated with ethanol to recover the DNA (hereinafter referred to as the Luc vector DNA). Then, after about 20 ng of the collagen promoter DNA and about 20 ng of the Luc vector DNA were mixed, the same amount of a DNA Ligation kit Ver2 enzyme solution was added and this was incubated overnight at 16° C. To the mixed solution was added Escherichia coli 5Hdα (TOYOBO, catalogue No. DNA-903), this was allowed to stand in ice for 30 minutes, and then incubated at 42° C. for 45 seconds. […]

[2] = system: mRNA of Type I collagen gene in renal glomerulus; assay: Improvement of chronic renal failure: mRNA of Type I collagen gene in renal glomerulus of anti-Thy-1 antibody rats; type: in vivo, rat; parameters: key to mRNA of collagen gene: Type I collagen amount / GAPDH amount; details: for ability to improve chronic renal failure: anti-Thy-1 antibody rats, 15 mg/kg/day orally for 7 days; for mRNA of collagen gene: male Wistar rats given anti-Thy-1 antibody (IgG) i.v., compound orally 15 mg/kg/day for 7 days, Type I collagen amount/GAPDH amount, renal cortex, control group 5.6, normal group 1.7
Method: IgG was purified from an ascites-lyophilized powder (CEDARLANE, lot No. 05122) containing an anti-rat CD90 (Thy1.1) monoclonal antibody using MAbTrap kit (Amersham Biosciences, catalogue No. 17-1128-01).
6 ml of a binding buffer was added to 3 ml of ascites to sufficiently recover it, and this was passed through a 0.22 μm filter. The resulting solution was applied to a pre-bufferized column, and the column was then washed with 10 ml of a binding buffer. Thereafter, the column was eluted with 5 ml of an elution buffer. From washing, each 1 ml was fractionated, and the protein concentration of each fraction was measured using bovine serum albumin as a standard. A single peak was confirmed from an elution pattern, and an IgG fraction was dialyzed against a physiological saline overnight at 4° C. The protein concentration of the resulting anti-Thy-1 antibody (IgG) was calculated.
The present compounds represented by the compound numbers (1a), (4a), (9a), (14a), (21a), (33a), (19b) or (21d) (hereinafter, referred to as the present compound (1a), (4a), (9a), (14a), (21a), (33a), (19b) or the present compound (21d), respectively) and a corn oil which is a medium were weighed. These were mixed using a mortar and a pestle to prepare a […]. Using four 7-week old male Wistar rats [Nippon Charles River] per group, 60 μg/ml of the anti-Thy-1 antibody (IgG) or a physiological saline was intravenously injected via a tail vein at 5 ml/kg. Immediately after administration of the anti-Thy-1 antibody (IgG) or a physiological saline, the present compound or a corn oil was repeatedly orally administered for 7 days at 5 ml/kg. A dose of the present compound was 15 mg/kg/day.
On the next day of final administration, a rat reared as described in the above (2) was slaughtered by collection of whole blood, and kidneys were isolated. A whole RNA was separated from the cortex of the isolated kidney using RNeasy Mini Kit (QIAGEN, catalogue No. 74106). To 5 μl (50 ng) of the separated whole RNA were added 1 μl of 20 μM oligo dT and 4 μl of RNase-free distilled water. After the mixture was incubated at 65° C. for 5 minutes, it was immediately ice-cooled. To 10 μl of the solution were added 4 μl of 5× buffer, 2.4 μl of MgCl2, 1 μl of 10 mM dNTP, 1 μl of RNasin, 1 μl of Improm II and 0.6 μl of RNase-free distilled water (all available from Promega), and a reverse transcription reaction was performed under the condition of at 25° C. for 5 minutes, at 42° C. for 1 hour, and at 70° C. for 15 minutes.
Into 5 μl of the reverse transcription reaction solution were mixed each 2 μl of each 1.25 pmol/μl of primers represented by SEQ ID NOS: 3 and 4, 1.25 μl of a probe (FAM-ctcgccttca tgcgcctgct agc-TAMRA) for detecting DNA of a Type I collagen gene represented by SEQ ID No:5, each 0.25 μl of Rodent GAPDH primers, 0.25 μl of a Rodent GAPDH probe, 12.5 μl of TaqMan Universal PCR Master Mix (all available from Applied Biosystem) and 1.5 μl of sterilized water in a well of Optical 96-Well Reaction Plate (Applied Biosystem, catalogue No. N801-0560). As a standard, in place of 5 μl of the reverse transcription reaction solution, each 5 μl of 500, 250, 125, 62.5, 31.25, 15.625 ng/μl rat renal cortex cDNA which had been prepared in advance was used. Thereafter, using Gene Amp 7900 (Applied Biosystem), PCR was performed under the condition of at 50° C. for 5 minutes, and 40 cycles in which one cycle is at 95° C. for 15 seconds and at 60° C. for 1 minute. For quantization, a standard straight line was made, the Type I collagen and GAPDH amounts of each sample were calculated, and the transcription amount was calculated according to the following equation: Type I collagen transcription amount=Type I collagen amount/GAPDH amount
For statistical treatment of the resulting result, F-test of a variance ratio was performed between two groups of the anti-Thy-1 antibody and corn oil-administered groups and other each group. […]

Compound | inhibition at 1 µM [1] [%] | ability to improve chronic renal failure [2] | mRNA of collagen gene [2]
Cc1cc(O)c(C(=O)C=Cc2cccc(C=CC#N)c2)c(=O)o1 [(1a), 4-hydroxy-3-[3-[3-(2-cyanoethenyl)phenyl]-1-oxo-2-propenyl]-6-methyl-2H-pyran-2-one] | ≥ 70 | have the ability to improve chronic renal failure | 1.9
C=CCOc1cccc(C=CC(=O)c2c(O)cc(C)oc2=O)c1 [(4a), 4-hydroxy-3-[3-(3-allyloxyphenyl)-1-oxo-2-propenyl]-6-methyl-2H-pyran-2-one] | ≥ 70 | have the ability to improve chronic renal failure | 3.2
C#CCOc1ccc(C=CC(=O)c2c(O)cc(C)oc2=O)cc1 [(9a), 4-hydroxy-3-[3-(4-propargyloxyphenyl)-1-oxo-2-propenyl]-6-methyl-2H-pyran-2-one] |  | have the ability to improve chronic renal failure | 3.4
Cc1cc(O)c(C(=O)C=Cc2cccc(OCC#N)c2)c(=O)o1 [(14a), 4-hydroxy-3-[3-[3-(cyanomethoxy)phenyl]-1-oxo-2-propenyl]-6-methyl-2H-pyran-2-one] | ≥ 70 | have the ability to improve chronic renal failure | 2.2
COC(=O)CNC(=O)c1cccc(C=CC(=O)c2c(N3CCOCC3)cc(C)oc2=O)c1 [(19b), 4-morpholino-3-[3-[3-[[(methoxycarbonylmethyl)amino]carbonyl]phenyl]-1-oxo-2-propenyl]-6-methyl-2H-pyran-2-one] | ≥ 70 | have the ability to improve chronic renal failure | 2.9
COCC(=O)Nc1cccc(C=CC(=O)c2c(O)cc(C)oc2=O)c1 [(21a), 4-hydroxy-3-[3-[3-(methoxyacetylamino)phenyl]-1-oxo-2-propenyl]-6-methyl-2H-pyran-2-one] | ≥ 70 | have the ability to improve chronic renal failure | 1.7
COCC(=O)Nc1cccc(C=CC(=O)c2c(O)c3ccccc3oc2=O)c1 [(21d), 4-hydroxy-3-[3-[3-(methoxyacetylamino)phenyl]-1-oxo-2-propenyl]-2H-1-benzopyran-2-one] | ≥ 70 | have the ability to improve chronic renal failure | 2.2
COC(=O)CNC(=O)c1cccc(C=CC(=O)c2c(O)cc(C)oc2=O)c1 [(33a), 4-hydroxy-3-[3-[3-[[(methoxycarbonylmethyl)amino]carbonyl]phenyl]-1-oxo-2-propenyl]-6-methyl-2H-pyran-2-one] | ≥ 70 | have the ability to improve chronic renal failure | 3.3
